Measured values reported in patent US20250114345A1, “COMPOUNDS AND COMPOSITIONS AS CBP/P300 DEGRADERS AND USES THEREOF” (Oncopia Therapeutics, Inc. d/b/a/ SK Life Science Labs, priority 2023, published 2025).

Assays:
[1] = biological target: T1, CBP (Homo sapiens, UniProt Q92793); assay: CBP degradation, HiBit technology in A549 CBP HiBit cells (24 h); assay type: cell-based; details: 24 hrs post treatment
T1 construct: host or cells: A549 CBP HiBit cells
In short: (§1)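 Cells: A549 HiBiT-tagged lines, 0.2×10^4/well, F-12K + 10% HI-FBS, equilibrated overnight. Tx: serial dilution of cpd (10 mM DMSO stock). Readout: HiBiT lytic reagent, 10 min RT shaking, luminescence → potency, Dmax.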

[2] = biological target: T2, p300 (Homo sapiens, UniProt Q09472); assay: P300 degradation, HiBit technology in A549 P300 HiBit cells (2 h); assay type: cell-based; details: 2 hrs post treatment; for Dmax: A549, A549 P300 HiBit cells; for DC50: A549 P300 HiBit cells
T2 construct: host or cells: A549 P300 HiBit cells
In short: as §1

T2 sequence (Q09472 whole entry): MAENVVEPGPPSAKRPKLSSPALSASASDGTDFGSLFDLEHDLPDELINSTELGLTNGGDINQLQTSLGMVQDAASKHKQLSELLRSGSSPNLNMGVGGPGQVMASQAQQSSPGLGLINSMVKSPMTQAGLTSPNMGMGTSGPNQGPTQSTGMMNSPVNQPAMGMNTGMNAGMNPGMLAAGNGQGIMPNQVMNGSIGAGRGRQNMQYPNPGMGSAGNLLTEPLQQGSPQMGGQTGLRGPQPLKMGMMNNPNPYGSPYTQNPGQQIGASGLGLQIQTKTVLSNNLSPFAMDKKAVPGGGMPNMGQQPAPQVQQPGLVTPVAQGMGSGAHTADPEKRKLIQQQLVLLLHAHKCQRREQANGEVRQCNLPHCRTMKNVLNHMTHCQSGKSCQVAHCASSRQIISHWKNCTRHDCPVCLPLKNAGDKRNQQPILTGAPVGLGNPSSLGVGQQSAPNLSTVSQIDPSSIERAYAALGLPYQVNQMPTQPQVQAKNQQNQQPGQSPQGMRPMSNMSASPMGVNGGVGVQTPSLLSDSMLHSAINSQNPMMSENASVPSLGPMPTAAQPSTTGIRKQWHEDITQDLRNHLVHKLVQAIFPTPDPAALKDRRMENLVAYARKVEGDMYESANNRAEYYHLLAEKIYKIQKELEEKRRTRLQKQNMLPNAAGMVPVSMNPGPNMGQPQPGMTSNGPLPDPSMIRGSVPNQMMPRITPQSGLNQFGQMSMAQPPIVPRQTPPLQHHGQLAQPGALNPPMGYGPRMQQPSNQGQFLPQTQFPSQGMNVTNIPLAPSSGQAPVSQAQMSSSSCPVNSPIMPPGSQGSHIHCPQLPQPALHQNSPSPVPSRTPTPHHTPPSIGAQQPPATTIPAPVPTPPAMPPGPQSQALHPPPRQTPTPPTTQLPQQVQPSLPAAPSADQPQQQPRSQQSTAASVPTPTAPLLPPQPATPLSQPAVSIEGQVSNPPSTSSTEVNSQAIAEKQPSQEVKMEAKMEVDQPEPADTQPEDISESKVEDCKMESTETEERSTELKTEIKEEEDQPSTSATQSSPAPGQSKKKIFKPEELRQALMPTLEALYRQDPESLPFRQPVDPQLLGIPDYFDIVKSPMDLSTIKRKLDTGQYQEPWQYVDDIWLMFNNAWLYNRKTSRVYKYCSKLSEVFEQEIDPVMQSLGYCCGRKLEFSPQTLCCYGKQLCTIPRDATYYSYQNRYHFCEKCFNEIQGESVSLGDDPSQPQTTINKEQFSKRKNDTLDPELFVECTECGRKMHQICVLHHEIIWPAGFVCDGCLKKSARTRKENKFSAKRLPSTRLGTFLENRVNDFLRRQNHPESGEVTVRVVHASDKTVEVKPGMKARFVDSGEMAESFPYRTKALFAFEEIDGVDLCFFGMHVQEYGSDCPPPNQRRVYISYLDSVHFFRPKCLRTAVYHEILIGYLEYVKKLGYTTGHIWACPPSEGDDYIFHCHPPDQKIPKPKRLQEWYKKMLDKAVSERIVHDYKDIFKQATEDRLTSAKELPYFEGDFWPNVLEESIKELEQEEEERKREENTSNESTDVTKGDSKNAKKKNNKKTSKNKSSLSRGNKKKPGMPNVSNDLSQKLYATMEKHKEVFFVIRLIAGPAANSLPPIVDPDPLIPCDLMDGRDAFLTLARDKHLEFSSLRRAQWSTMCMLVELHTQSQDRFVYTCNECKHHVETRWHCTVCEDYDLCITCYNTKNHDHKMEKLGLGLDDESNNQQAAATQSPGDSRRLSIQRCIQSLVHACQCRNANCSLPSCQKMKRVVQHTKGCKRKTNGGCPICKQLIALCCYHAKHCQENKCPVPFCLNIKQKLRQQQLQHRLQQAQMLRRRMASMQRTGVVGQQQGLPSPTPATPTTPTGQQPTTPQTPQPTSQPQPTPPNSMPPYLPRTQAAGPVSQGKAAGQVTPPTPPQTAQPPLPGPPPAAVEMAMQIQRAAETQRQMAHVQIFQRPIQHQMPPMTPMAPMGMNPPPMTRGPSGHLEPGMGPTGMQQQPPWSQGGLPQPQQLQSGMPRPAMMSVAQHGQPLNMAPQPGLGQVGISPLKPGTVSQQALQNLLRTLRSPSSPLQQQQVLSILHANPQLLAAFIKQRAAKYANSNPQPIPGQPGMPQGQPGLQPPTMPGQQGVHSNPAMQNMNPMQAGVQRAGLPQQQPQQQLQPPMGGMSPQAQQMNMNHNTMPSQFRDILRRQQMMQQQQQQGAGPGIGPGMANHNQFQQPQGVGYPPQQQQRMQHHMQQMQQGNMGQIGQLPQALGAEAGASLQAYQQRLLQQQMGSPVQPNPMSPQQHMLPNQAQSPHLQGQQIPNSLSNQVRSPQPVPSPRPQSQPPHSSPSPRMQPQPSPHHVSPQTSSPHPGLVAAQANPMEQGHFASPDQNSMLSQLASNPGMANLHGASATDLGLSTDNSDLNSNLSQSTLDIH
T1 sequence (Q92793 whole entry): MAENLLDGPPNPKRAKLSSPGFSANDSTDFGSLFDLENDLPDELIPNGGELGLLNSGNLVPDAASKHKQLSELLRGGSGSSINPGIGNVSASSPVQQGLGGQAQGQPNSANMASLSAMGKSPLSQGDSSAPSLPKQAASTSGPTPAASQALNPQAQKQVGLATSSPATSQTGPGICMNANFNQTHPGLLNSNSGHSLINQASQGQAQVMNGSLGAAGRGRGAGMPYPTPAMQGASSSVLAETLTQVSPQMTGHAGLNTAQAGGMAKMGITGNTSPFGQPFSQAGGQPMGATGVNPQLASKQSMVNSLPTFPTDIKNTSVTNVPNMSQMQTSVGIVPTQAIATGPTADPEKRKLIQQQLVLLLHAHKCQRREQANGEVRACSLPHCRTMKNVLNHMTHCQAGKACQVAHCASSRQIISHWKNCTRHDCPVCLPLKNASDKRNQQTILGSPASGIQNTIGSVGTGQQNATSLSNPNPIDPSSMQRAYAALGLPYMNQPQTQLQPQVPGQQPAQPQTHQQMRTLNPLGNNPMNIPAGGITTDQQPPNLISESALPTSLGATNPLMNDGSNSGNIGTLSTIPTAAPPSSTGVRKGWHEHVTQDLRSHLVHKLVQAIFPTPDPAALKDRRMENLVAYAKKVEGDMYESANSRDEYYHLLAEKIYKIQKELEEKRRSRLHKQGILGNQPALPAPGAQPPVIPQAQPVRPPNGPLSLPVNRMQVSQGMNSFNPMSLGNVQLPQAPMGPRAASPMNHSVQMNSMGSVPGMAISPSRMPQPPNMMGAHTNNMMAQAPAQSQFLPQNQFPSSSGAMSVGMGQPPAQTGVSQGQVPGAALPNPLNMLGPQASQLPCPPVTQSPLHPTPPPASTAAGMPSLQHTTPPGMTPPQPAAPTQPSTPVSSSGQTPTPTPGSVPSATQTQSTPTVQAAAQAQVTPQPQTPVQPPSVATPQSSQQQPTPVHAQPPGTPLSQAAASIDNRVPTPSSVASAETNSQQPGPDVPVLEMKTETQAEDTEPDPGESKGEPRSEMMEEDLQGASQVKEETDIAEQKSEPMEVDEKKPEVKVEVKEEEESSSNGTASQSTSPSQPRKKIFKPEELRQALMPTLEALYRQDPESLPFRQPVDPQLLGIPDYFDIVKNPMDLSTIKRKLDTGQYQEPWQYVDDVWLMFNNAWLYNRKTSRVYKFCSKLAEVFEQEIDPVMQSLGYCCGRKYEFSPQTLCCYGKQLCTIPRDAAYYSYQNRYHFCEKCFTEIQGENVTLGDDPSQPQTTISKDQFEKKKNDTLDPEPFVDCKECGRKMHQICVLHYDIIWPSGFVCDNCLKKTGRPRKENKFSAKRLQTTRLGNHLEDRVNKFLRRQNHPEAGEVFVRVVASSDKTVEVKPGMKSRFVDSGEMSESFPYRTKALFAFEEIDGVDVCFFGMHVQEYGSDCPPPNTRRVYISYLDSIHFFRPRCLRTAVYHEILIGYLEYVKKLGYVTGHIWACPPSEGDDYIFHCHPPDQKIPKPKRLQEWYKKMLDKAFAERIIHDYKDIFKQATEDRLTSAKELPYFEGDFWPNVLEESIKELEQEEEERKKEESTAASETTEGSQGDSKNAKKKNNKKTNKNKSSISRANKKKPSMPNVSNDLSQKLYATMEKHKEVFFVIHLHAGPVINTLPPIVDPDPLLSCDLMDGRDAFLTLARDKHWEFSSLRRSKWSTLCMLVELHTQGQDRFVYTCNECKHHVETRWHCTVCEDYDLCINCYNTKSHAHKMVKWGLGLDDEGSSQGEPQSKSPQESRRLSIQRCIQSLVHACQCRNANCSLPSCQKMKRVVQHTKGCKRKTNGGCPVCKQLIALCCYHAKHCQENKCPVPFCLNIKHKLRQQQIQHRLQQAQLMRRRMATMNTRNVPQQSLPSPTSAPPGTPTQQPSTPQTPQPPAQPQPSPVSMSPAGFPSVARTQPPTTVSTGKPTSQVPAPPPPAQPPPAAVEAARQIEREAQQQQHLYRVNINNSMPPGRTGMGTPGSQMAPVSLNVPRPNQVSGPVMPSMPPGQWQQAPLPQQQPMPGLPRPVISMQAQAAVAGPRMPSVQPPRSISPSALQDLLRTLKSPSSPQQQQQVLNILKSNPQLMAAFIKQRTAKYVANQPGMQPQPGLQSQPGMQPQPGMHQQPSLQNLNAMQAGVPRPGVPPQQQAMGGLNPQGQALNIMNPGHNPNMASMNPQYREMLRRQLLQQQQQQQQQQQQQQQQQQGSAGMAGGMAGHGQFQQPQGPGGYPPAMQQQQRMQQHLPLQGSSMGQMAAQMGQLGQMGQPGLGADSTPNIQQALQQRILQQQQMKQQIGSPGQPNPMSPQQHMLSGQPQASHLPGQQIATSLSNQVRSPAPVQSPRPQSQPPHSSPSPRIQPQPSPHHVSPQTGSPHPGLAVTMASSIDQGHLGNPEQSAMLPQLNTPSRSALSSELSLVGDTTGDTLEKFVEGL

Row | DC50 [1] [nM] | Dmax [1] [%] | Dmax [2] [%] | DC50 [2] [nM] | SMILES
1 | > 1000 | < 20 | 60 to 79 | 1 to 9.9 | Cc1cc2c(N3CCCc4nc(-c5ccc(C(=O)NCC#Cc6ccc7occ(C8CCC(=O)NC8=O)c7c6)nc5)ncc43)cc(N3CCOCC3)nc2n(C)c1=O (centres unmarked) [Example B61, 5-(5-(6,8-dimethyl-2-morpholino-7-oxo-7,8-dihydro-1,8-naphthyridin-4-yl)-5,6,7,8-tetrahydropyrido[3,2-d]pyrimidin-2-yl)-N-(3-(3-(2,6-dioxopiperidin-3-yl)benzofuran-5-yl)prop-2-yn-1-yl)picolinamide]
2 | 10 to 99 | 40 to 59 | > 80 | 1 to 9.9 | Cc1cc2c(N3CCCc4nc(-c5ccc(C(=O)NCC#Cc6cc7c(C8CCC(=O)NC8=O)nccc7s6)nc5)ncc43)cc(C3CCOCC3)cc2n(C)c1=O (centres unmarked) [Example B81, 5-(5-(1,3-dimethyl-2-oxo-7-(tetrahydro-2H-pyran-4-yl)-1,2-dihydroquinolin-5-yl)-5,6,7,8-tetrahydropyrido[3,2-d]pyrimidin-2-yl)-N-(3-(4-(2,6-dioxopiperidin-3-yl)thieno[3,2-c]pyridin-2-yl)prop-2-yn-1-yl)picolinamide]
3 | > 1000 | < 20 | > 80 | 1 to 9.9 | Cc1cc2c(N3CCCc4nc(-c5ccc(C(=O)NCC#Cc6cc7c(C8CCC(=O)NC8=O)cccc7o6)nc5)ncc43)cc(C(C)C)nc2n(C)c1=O (centres unmarked) [Example B56, N-(3-(4-(2,6-dioxopiperidin-3-yl)benzofuran-2-yl)prop-2-yn-1-yl)-5-(5-(2-isopropyl-6,8-dimethyl-7-oxo-7,8-dihydro-1,8-naphthyridin-4-yl)-5,6,7,8-tetrahydropyrido[3,2-d]pyrimidin-2-yl)picolinamide]
4 | > 1000 | < 20 | > 80 | 1 to 9.9 | Cc1cc2c(N3CCCc4cc(-c5ccc(C(=O)NCC#Cc6ccc7occ(C8CCC(=O)NC8=O)c7c6)nc5)nnc43)cc(C3CCOCC3)cc2n(C)c1=O (centres unmarked) [Example B64, 5-(8-(1,3-dimethyl-2-oxo-7-(tetrahydro-2H-pyran-4-yl)-1,2-dihydroquinolin-5-yl)-5,6,7,8-tetrahydropyrido[2,3-c]pyridazin-3-yl)-N-(3-(3-(2,6-dioxopiperidin-3-yl)benzofuran-5-yl)prop-2-yn-1-yl)picolinamide]
5 | > 1000 | < 20 | 40 to 59 | 1 to 9.9 | Cc1cc2c(N3CCCc4nc(-c5ccc(C(=O)NCC#Cc6ccc7occ(C8CCC(=O)NC8=O)c7c6)nc5)ncc43)cncc2n(C)c1=O (centres unmarked) [Example B69, 5-(5-(1,3-dimethyl-2-oxo-1,2-dihydro-1,7-naphthyridin-5-yl)-5,6,7,8-tetrahydropyrido [3,2-d]pyrimidin-2-yl)-N-(3-(3-(2,6-dioxo-piperidin-3-yl)benzofuran-5-yl)prop-2-yn-1-yl)picolinamide]
6 | 100 to 999 | < 20 | > 80 | 1 to 9.9 | [2H]C1COCCC1([2H])c1cc(N2CCCc3nc(-c4ccc(C(=O)NCC#Cc5cc6c(C7CCC(=O)NC7=O)cccc6o5)nc4)ncc32)c2cc(C)c(=O)n(C)c2c1 (centres unmarked) [Example B23, 5-(5-(1,3-dimethyl-2-oxo-7-(tetrahydro-2H-pyran-4-yl-3,4-d2)-1,2-dihydroquinolin-5-yl)-5,6,7,8-tetrahydropyrido[3,2-d]pyrimidin-2-yl)-N-(3-(4-(2,6-dioxopiperidin-3-yl)benzofuran-2-yl)prop-2-yn-1-yl)picolinamide]

Continued, compound first:

Row | SMILES | DC50 [1] [nM] | Dmax [1] [%] | Dmax [2] [%] | DC50 [2] [nM]
7 | Cn1c(=O)n(C)c2c(N3CCOCC3)nc(-c3cccc4cc(-c5ccc(C(=O)NCC#Cc6ccc7occ(C8CCC(=O)NC8=O)c7c6)nc5)ncc34)cc21 (centres unmarked) [Example A138, 5-(8-(1,3-dimethyl-4-morpholino-2-oxo-2,3-dihydro-1H-imidazo[4,5-c]pyridin-6-yl)isoquinolin-3-yl)-N-(3-(3-(2,6-dioxopiperidin-3-yl)benzofuran-5-yl)prop-2-yn-1-yl)picolinamide] | > 1000 | < 20 | > 80 | < 1
8 | CC(C)c1cc(-c2cccc3cc(-c4ccc(C(=O)NCC#Cc5cc6c(C7CCC(=O)NC7=O)nccc6s5)nc4)ncc23)cc2c1n(C)c(=O)n2C (centres unmarked) [Example A208, N-(3-(4-(2,6-dioxo-piperidin-3-yl)thieno[3,2-c]pyridin-2-yl)prop-2-yn-1-yl)-5-(8-(7-isopropyl-1,3-dimethyl-2-oxo-2,3-dihydro-1H-benzo[d]imidazol-5-yl)isoquinolin-3-yl)picolinamide] | 10 to 99 | 60 to 79 | > 80 | 1 to 9.9
9 | Cc1cc(-c2ccc(N(C)c3cc(C(C)C)c4c(c3)n(C)c(=O)n4C)cn2)cnc1C(=O)NCC#Cc1cccc(NC2CCC(=O)NC2=O)c1 (centres unmarked) [Example A34, N-(3-(3-((2,6-Dioxopiperidin-3-yl)amino)phenyl)prop-2-yn-1-yl)-5-((7-isopropyl-1,3-dimethyl-2-oxo-2,3-dihydro-1H-benzo[d]imidazol-5-yl)(methyl)amino)-5′-methyl-[2,3′-bipyridine]-6′-carboxamide] | > 1000 | < 20 | > 80 | 10 to 99
10 | Cc1cc(-c2cc3cccc(-c4ccc5c(c4)n(C)c(=O)n5C)c3cn2)cnc1C(=O)NCC#Cc1cc2c(C3CCC(=O)NC3=O)cccc2o1 (centres unmarked) [Example A180, 5-(8-(1,3-dimethyl-2-oxo-2,3-dihydro-1H-benzo[d]imidazol-5-yl)isoquinolin-3-yl)-N-(3-(4-(2,6-dioxo-piperidin-3-yl)benzofuran-2-yl)prop-2-yn-1-yl)-3-methylpicolinamide] | > 1000 | < 20 | > 80 | 1 to 9.9
11 | CCN(c1cnc(-c2cnc(C(=O)NCC#Cc3ccc4occ(C5CCC(=O)NC5=O)c4c3)c(C)c2)nc1)c1cc(C(C)C)c2c(c1)n(C)c(=O)n2C (centres unmarked) [Example A70, N-(3-(3-(2,6-dioxopiperidin-3-yl)benzofuran-5-yl)prop-2-yn-1-yl)-5-(5-(ethyl(7-isopropyl-1,3-dimethyl-2-oxo-2,3-dihydro-1H-benzo[d]imidazol-5-yl)amino)pyrimidin-2-yl)-3-methylpicolinamide] | > 1000 | < 20 | > 80 | 1 to 9.9
12 | CC(C)c1cc(-c2cccc3cc(-c4ccc(C(=O)NCC#Cc5cnc6c(c5)c(C5CCC(=O)NC5=O)cn6C)nc4)ncc23)cc2c1n(C)c(=O)n2C (centres unmarked) [Example A202, N-(3-(3-(2,6-dioxo-piperidin-3-yl)-1-methyl-1H-pyrrolo [2,3-b]pyridin-5-yl)prop-2-yn-1-yl)-5-(8-(7-isopropyl-1,3-dimethyl-2-oxo-2,3-dihydro-1H-benzo[d]imidazol-5-yl)isoquinolin-3-yl)picolinamide] | > 1000 | < 20 | 60 to 79 | 10 to 99
13 | Cc1cc(-c2ncc3c(n2)OCCN3c2ccc3c(c2)n(C)c(=O)n3C)cnc1C(=O)NCC#Cc1cc2ccnc(C3CCC(=O)NC3=O)c2o1 (centres unmarked) [Example A251, 5-(5-(1,3-dimethyl-2-oxo-2,3-dihydro-1H-benzo[d]imidazol-5-yl)-6,7-dihydro-5H-pyrimido[4,5-b][1,4]oxazin-2-yl)-N-(3-(7-(2,6-dioxopiperidin-3-yl)furo[2,3-c]pyridin-2-yl)prop-2-yn-1-yl)-3-methylpicolinamide] | > 1000 | < 20 | 60 to 79 | 10 to 99
14 | CC(C)c1cc(-c2cccc3cc(-c4ccc(C(=O)NCC#Cc5ccn6ncc(C7CCC(=O)NC7=O)c6c5)nc4)ncc23)cc2c1n(C)c(=O)n2C (centres unmarked) [Example A172, N-(3-(3-(2,6-dioxo-piperidin-3-yl)pyrazolo[1,5-a]pyridin-5-yl)prop-2-yn-1-yl)-5-(8-(7-isopropyl-1,3-dimethyl-2-oxo-2,3-dihydro-1H-benzo[d]imidazol-5-yl)isoquinolin-3-yl)picolinamide] | 100 to 999 | < 20 | > 80 | < 1
15 | Cc1cc(-c2cc3cccc(-c4ccc5c(c4)n(C)c(=O)n5C)c3cn2)cnc1C(=O)NCC#Cc1ccc2occ([C@@H]3CCC(=O)NC3=O)c2c1 [Example A61, (S)-5-(8-(1,3-dimethyl-2-oxo-2,3-dihydro-1H-benzo[d]imidazol-5-yl)isoquinolin-3-yl)-N-(3-(3-(2,6-dioxo-piperidin-3-yl)benzofuran-5-yl)prop-2-yn-1-yl)-3-methylpicolinamide] | > 1000 | < 20 | > 80 | 1 to 9.9
16 | Cn1nc(C2CCC(=O)NC2=O)c2cc(C#CCNC(=O)c3ccc(-c4ncc5c(n4)OCCN5c4ccc5c(c4)n(C)c(=O)n5C)cn3)ccc21 (centres unmarked) [Example A243, 5-(5-(1,3-dimethyl-2-oxo-2,3-dihydro-1H-benzo[d]imidazol-5-yl)-6,7-dihydro-5H-pyrimido[4,5-b][1,4]oxazin-2-yl)-N-(3-(3-(2,6-dioxopiperidin-3-yl)-1-methyl-1H-indazol-5-yl)prop-2-yn-1-yl)picolinamide] | > 1000 | < 20 | > 80 | 1 to 9.9
17 | Cc1cc(N2CCN(C)c3nc(-c4ccc(C(=O)NCC#Cc5cc6c(C7CCC(=O)NC7=O)cccc6o5)nc4)ncc32)cc2c1n(C)c(=O)n2C (centres unmarked) [Example A219, N-(3-(4-(2,6-dioxo-piperidin-3-yl)benzofuran-2-yl)prop-2-yn-1-yl)-5-(8-methyl-5-(1,3,7-trimethyl-2-oxo-2,3-dihydro-1H-benzo[d]imidazol-5-yl)-5,6,7,8-tetrahydro-pteridin-2-yl)picolinamide] | 100 to 999 | < 20 | > 80 | < 1
